# Reference: US8383601B2, “Tissue specific gene therapy treatment” (Thomas Jefferson University, priority 2006, dated 2013)
# Where no end group is shown, it is not given here.
# Tests used:
# HCAEC = test: S100A1 overexpression and NO production in HCAEC; format: cell-based, human; conditions: HCAEC pre-incubated with 10^−4 M 20 minutes prior to ACh
# Description: S100A1 overexpression and NO production in HCAEC—S100A1 overexpression in HCAEC was achieved by electrical transfection of the plasmid pAdTrack-S100A1 (10 μg), which encodes for GFP and S100A1 both driven by individual cytomegalovirus (CMV) promoters. PBS and the plasmid pAdTrack (10 μg) were used as controls. 500,000 HCAEC were used for each transfection using Nucleofactor® (AMAXA biosystems) according to the manufacturers instructions and plated on 6 well dishes. 18 hours after transfection cells were stimulated using 10^−5M ACh or PBS for 1 hour. […] NO in the supernatant was measured indirectly using the Nitrate/Nitrite fluorometric assay kit (Cayman, Chemical) according to company recommendations. Transfection was controlled by GFP expression as described previously and cells were harvested for mRNA isolation. Experiments were run in triplicate and 3 individual experiments were performed.
# mouse thoracic aorta = test: In vitro physiology: relaxation/contraction response of thoracic aorta rings
# Source text: In Vitro physiology —The relaxation/contraction response of thoracic aortas of WT or SKO mice was examined using a commercially available mounting apparatus attached to a force transducer (ADInstruments). […] Data were normalized to the PE-induced EC50 contraction which were similar between all aorta tested.
# [1] = system: endothelial surface of thoracic aorta; test: NO release from mouse aorta; conditions: ACh 10^−5 M
# Description: NO release from mouse aorta—NO release from the endothelial surface of aorta was measured in vitro using an Apollo 4000 “Free Radical Analyzer” (WPI, Sarasota, Fla.) as previously described with some modifications.^52 Briefly, thoracic aorta of WT (n=4) and SKO (n=4) mice were carefully isolated and pinned down in KH solution after connective tissue was thoroughly removed. NO was measured under baseline conditions as well as after ACh stimulation (10^−5 M). Two measurements were recorded per animal and condition and NO values were normalized to the weight of the vascular tissue.
# [2] = system: adult rat ventricular cardiomyocytes; test: Diastolic cell length of isolated cardiomyocytes; format: cell-based; conditions: 2 hrs after cardiomyocyte isolation, 3 animals per group, 18 weeks post-MI; mean ± SEM
# Description: Isolation of adult rat ventricular cardiomyocytes—Ca^2+-tolerant adult cardiomyocytes were isolated from LVs 8 weeks after gene delivery (18 weeks post-MI) by a standard enzymatic digestion procedure and cultivated as described^13,15. […] Length of isolated cardiomyocytes was determined on enlarged digital photos using Olympus Fluoview 4.3 software.
# [3] = system: rat MI model (chronic HF); test: Catheter-based in vivo hemodynamic measurements in post-MI HF rats; conditions: mean ± SEM
# Description: (§1) Rat MI model and cardiac gene delivery—All animal procedures and experiments were performed in accordance with the guidelines of the IACUC of Thomas Jefferson University. MI was induced as described previously using a model of cryoinfarction that produces a highly reproducible loss of myocardium^13. Briefly, anesthetized adult male (250-300 g) rats were intubated and mechanically ventilated and anaesthesia was maintained using a 2% isoflurane (v/v) oxygen mixture. The heart was exposed through a median sternotomy and the pericardium was opened. A 6-0 suture was placed at the apex of the LV. An 8 mm diameter cylindrical stamp was cooled in liquid nitrogen and then pressed on the LV free wall. Cryothermia was applied by use of three freeze cycles of 1 min each that was interrupted by one minute thawing intervals^13,15.
# Myocardial gene transfer to 10 week post-MI rats was achieved as previously described^13,15 with some modifications. Briefly, under general anesthesia (2% isoflurane, v/v) a midline cervical incision was made and the animal was cooled to 29° C. using ice packs. A P-50 catheter (Becton Dickinson, Sparks, Md.) was advanced into the aortic root via the right carotid artery and the ascending aorta was looped using 2-0 silk. 1.2 mg adenosine was injected into the right ventricle using a 30½ G needle. Next, the ascending aorta was clamped and 2.5×10^11 particles of the AAV construct and 8 μg of substance P (Sigma) were rapidly injected into the aortic root allowing for coronary perfusion. After 2 min the aortic clamp was released, a bolus of dobutamine (30 μg; intra-arterial) was administered and the animal was re-warmed using a heating pad. The incision was closed and animals were transferred back to their cages receiving appropriate analgesia. […]
# Catheter-based in vivo hemodynamic measurements—Cardiac function was measured 8 weeks following gene therapy (18 weeks after MI) in anesthetized rats (2% isoflurane; v/v) using 2 F pressure catheter (SPR-320; Millar instruments, Houston, Tex.). The pressure transducer was placed into the LV cavity through the right carotid artery and the right external jugular vein was cannulated with a P-10 catheter (Becton Dickinson, Sparks, Md.) that was used for isoproterenol administration (333 ng/kg BW) as previously described^13,15.
# [4] = system: adult rat ventricular cardiomyocytes; test: Ca2+-transient analyses and contractile parameters of isolated adult rat cardiomyocytes; format: cell-based; conditions: 8 weeks after treatment; 1 Hz, 2.5 mM [Ca2+]e; for AAV6/S100A1 infected (green) cells only
# [5] = system: rat MI model (chronic HF); test: Echocardiography of global cardiac function in post-MI HF rats; format: in vivo
# Description: as §1
# Myocardial gene transfer to 10 week post-MI rats was achieved as previously described^13,15 with some modifications. […]
# Echocardiography—To measure global cardiac function, echocardiography was performed 10 and 18 weeks post-MI by use of the VisualSONICS VeVo 770 imaging system with a 710 scanhead in anesthetized animals (2% isoflurane, v/v). The internal diameter of the LV was measured in the short-axis view from M-mode recordings in end diastole and end systole. […]
# [6] = system: rat MI model (chronic HF); test: Heart weight to body weight ratio in post-MI HF rats; format: in vivo; conditions: 18 weeks post-MI; mean ± SEM
# Description: Myocardial gene transfer to 10 week post-MI rats was achieved as previously described^13,15 with some modifications. Briefly, under general anesthesia (2% isoflurane, v/v) a midline cervical incision was made and the animal was cooled to 29° C. using ice packs. A P-50 catheter (Becton Dickinson, Sparks, Md.) was advanced into the aortic root via the right carotid artery and the ascending aorta was looped using 2-0 silk. 1.2 mg adenosine was injected into the right ventricle using a 30½ G needle. Next, the ascending aorta was clamped and 2.5×10^11 particles of the AAV construct and 8 μg of substance P (Sigma) were rapidly injected into the aortic root allowing for coronary perfusion. […]
# [7] = system: LV mRNA (S100A1, SERCA2a, PLB, ANF, TGFβ1, Collagen I); test: Real-time RT-PCR of cardiac expression of key genes in LV; format: in vivo, rat; conditions: 18 weeks post-MI
# Description: RNA isolation and real-time RT-PCR—Total RNA was isolated from LV as well as from isolated cardiomyocytes using either Ultraspec® (Biotec) or Trizol® (Life Technologies). cDNA was synthesized by reverse transcription of the RNA with Superscript II® (Life Technologies) as recommended. Real-time RT-PCR was performed in duplicates with a 1:100 dilution of the cDNA on a MyIQ real time PCR detection system (BioRad) with the SYBR® Green PCR master mix (Applied Biosystems) as described previously^13,15. The oligonucleotide primers to examine expression of genes were as follows: ANF, forward primer 5′-[…]-3′ (SEQ. ID. No. 13), reverse primer 5′-[…]-3′ (SEQ. ID. No. 14); SERCA2a, forward primer 5′-[…]-3′ (SEQ. ID. No. 15), reverse primer 5′-[…]-3′ (SEQ. ID. No. 16); PLB, forward primer 5′-[…]-3′ (SEQ. ID. No. 17), reverse primer 5′-[…]-3′(SEQ. ID. No. 18); S100A1, forward primer 5′-[…]-3′ (SEQ. ID. No. 19), reverse primer 5′-[…]-3′ (SEQ. ID. No. 20); TGF-131, forward primer 5′-[…]-3′ (SEQ. ID. No. 21), reverse primer 5′-[…]-3′(SEQ. ID. No. 22); Collagen type I, forward primer 5′-[…]-3′ (SEQ. ID. No. 23), reverse primer 5′-AGGTGATGTTCTGGG-3′(SEQ. ID. No. 24); GRK2, forward primer 5′-[…]-3′ (SEQ. ID. No. 25), reverse primer 5′-[…]-3′ (SEQ. ID. No. 26). For normalization, 18S rRNA was used, forward primer 5′-[…]-3′ (SEQ. ID. No. 27), reverse primer 5′-GGACATCTAAGGGCATCAC-3′ (SEQ. ID. No. 28). PCR conditions were 95° C., 3 min, and 40 cycles of 95° C., 10 sec; 60.5° C., 45 sec. Specificity of PCR products were confirmed by gel electrophoresis.
# [8] = system: S100A1 mRNA expression in RCEC; test: Regulation of S100A1 expression in endothelial cells; format: cell-based, rat; conditions: 10^−7 M, 60 hours, versus PBS
# Description: Regulation of S100A1 expression in HCAEC—After growing HCAEC or RCEC to 90% confluency full medium was replaced by basal EBM-2 medium with 0.5% serum and cells were stimulated with endothelin-1 (ET-1), angiotensin II (AngII) (both 10^−7 M) or PBS for 60 h. Cells were harvested for either mRNA or protein isolation and S100A1 expression was standardized against 18S rRNA or GAPDH.
# RNA Isolation and Real-time RT-PCR—Total RNA was isolated from either HCAEC or […] using Trizol® (Life Technologies). cDNA was synthesized by reverse transcription of the RNA with Superscript II® (Life Technologies) as recommended. Real-time PCR was performed in duplicates with a 1:100 dilution of the cDNA on a MyIQ real time PCR detection system (BioRad) with the SYBR® Green PCR master mix (Applied Biosystems). The oligonucleotide primers to examine expression of genes were as follows: S100A1, forward primer 5′-[…]-3′ (SEQ. ID. No. 19), reverse primer 5′-[…]-3′ (SEQ. ID. No. 20). For normalization, 18S rRNA was used, forward primer 5′-[…]-3′ (SEQ. ID. No. 27), reverse primer 5′-GGACATCTAAGGGCATCAC-3′ (SEQ. ID. No. 28). PCR conditions were 95° C., 3 min, and 40 cycles of 95° C., 10 sec; 63.5° C., 45 sec. Specificity of PCR products were confirmed by gel electrophoresis.
# [9] = Isoproterenol (333 ng/kg BW), 8 weeks after gene therapy in HF
# [10] = basal, 8 weeks after gene therapy in HF
molecule,measurement,setting,value
"NCCOB(c1ccccc1)c1ccccc1 [2-APB, 2-aminoethoxydiphenylborate]",ACh-stimulated NO generation after IP3R blockage,HCAEC,abolished NO generation
"CC(=O)OCC[N+](C)(C)C [ACh, acetylcholine]",maximal response to ACh,mouse thoracic aorta; SKO aortas (n=6),55±6.49 % of PE-precontraction
same,maximal response to ACh,mouse thoracic aorta; WT control aortas (n=6),14±2.41 % of PE-precontraction
same,ACh stimulated aortic endothelial NO release,"[1]; SKO mice (n=4), second value",134.5±25.3 nM NO/mg tissue
same,ACh stimulated aortic endothelial NO release,[1]; WT mice (n=4),368.2±68.1 nM NO/mg tissue
"CNC[C@H](O)c1cccc(O)c1 [PE, phenylephrine]",EC50,"mouse thoracic aorta; Mus musculus, read-out: EC50 of the PE response (contraction)",0.3 µM
COCCc1ccc(OCC(O)CNC(C)C)cc1 (centres unmarked) [metoprolol],Cell length (diastolic),[2],118.9 ± 2.3 μm
same,HR,[3]; [9],308 ± 6^& min^−1
same,LV +dP/dt,[3]; [9],9403 ± 491 mmHg/s
same,LV −dP/dt,[3]; [9],5571 ± 333 mmHg/s
same,LVEDP,[3]; [9],2.8 ± 0.4 mmHg
same,LVESP,[3]; [9],105 ± 3.7 mmHg
same,HR,"[3]; basal, 8 weeks after gene therapy in HF (18 weeks post-MI)",264 ± 8^& min^−1
same,LV +dP/dt,[3]; [10],4948 ± 225 mmHg/s
same,LV −dP/dt,[3]; [10],4418 ± 223 mmHg/s
same,LVEDP,[3]; [10],4.6 ± 0.5 mmHg
same,LVESP,[3]; [10],109 ± 3.1 mmHg
same,contractile properties and [Ca2+]i transients of isolated failing myocytes,[4],did not affect contractile properties
same,LV chamber dilatation (LV diastolic dimension),[5]; 18 week post-MI compared to pre-treatment (10 week post-MI) values,significantly attenuated further LV chamber dilatation
same,change in cardiac function (EF) over the 2 month treatment period,"[5]; HF rats, metoprolol only (with GFP)",no improvement
same,HW/BW ratio,[6],2.77 ± 0.05 g/kg
same,Collagen I mRNA levels,[7],significantly reduced
same,TGFβ1 mRNA levels,[7],significantly reduced
same,ventricular ANF mRNA expression,[7],significantly reduced
same,PLB mRNA levels,[7]; standardized to 18S rRNA,attenuated the down-regulation
same,SERCA2a mRNA levels,[7]; standardized to 18S rRNA,attenuated the down-regulation
same,cardiac S100A1 mRNA,[7]; standardized to 18S rRNA,attenuated the down-regulation
"angiotensin II (DRVYIHPF; Angiotensin-2; UniProt P01019 25-32, looked up) [Ang II]",S100A1 mRNA levels,[8],significantly reduced
"endothelin-1 (CSCSSLMDKECVYFCHLDIIW; ends and bridges not checked; cysteine pairing not given here; UniProt P05305 53-73, looked up) [ET-1]",S100A1 mRNA levels,[8],significantly reduced
